In patent publication US20210205236A1, “THERAPEUTIC COMBINATIONS OF BOSWELLIA EXTRACT AND CANNABINOIDS” (priority 2018, published 2021):
Read-outs that look alike come from different tables or passages of the source.

Experiments:
[1] = biological target: T1, CB1 receptor (Homo sapiens, UniProt P21554); experiment: cell-based; format: cell-based; settings: for Conclusions: Is CB1R antagonist effect observed? / activity at 5 µM / Experiment 1 Fold change / Experiment 2 Fold change / Experiment 3 Fold change / activity at 10 µM / activity at 25 µM / activity at 50 µM / activity at 100 µM: alone or + THCA 10 μM, CBD 1 μM or THC 10 μM; for activity at 5 µM / activity at 10 µM / activity at 25 µM / activity at 50 µM / activity at 100 µM: CP55940-induced activity = 100%; for Experiment 1 Fold change / Experiment 2 Fold change / Experiment 3 Fold change: Table 3 data re-expressed as fold change
T1 construct: expressed in transfected cells

[2] = biological target: T1, CB1 receptor; format: cell-based; settings: for Conclusions: Is CB1R agonist effect observed? / Experiment 1 Fold change / Experiment 2 Fold change / Experiment 3 Fold change: alone or + THCA 10 μM or + THC 10 μM

T1 sequence (P21554 whole entry): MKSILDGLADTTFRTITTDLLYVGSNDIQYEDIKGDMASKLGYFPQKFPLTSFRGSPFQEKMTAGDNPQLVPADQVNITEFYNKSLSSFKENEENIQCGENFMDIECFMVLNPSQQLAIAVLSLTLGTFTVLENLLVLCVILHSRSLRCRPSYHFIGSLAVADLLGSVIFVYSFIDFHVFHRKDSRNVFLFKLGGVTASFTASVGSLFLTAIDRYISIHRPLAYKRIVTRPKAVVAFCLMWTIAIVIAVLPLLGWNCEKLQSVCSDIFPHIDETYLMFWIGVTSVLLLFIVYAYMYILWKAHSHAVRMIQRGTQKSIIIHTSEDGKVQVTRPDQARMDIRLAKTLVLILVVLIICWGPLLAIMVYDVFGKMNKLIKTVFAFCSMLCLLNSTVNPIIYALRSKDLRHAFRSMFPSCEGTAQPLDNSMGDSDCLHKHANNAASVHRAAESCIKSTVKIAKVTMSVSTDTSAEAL

`CC(=O)O[C@@H]1CC[C@@]2(C)[C@@H](CC[C@]3(C)[C@@H]2C(=O)C=C2[C@@H]4[C@@H](C)[C@H](C)CC[C@]4(C)CC[C@]23C)[C@@]1(C)C(=O)O` [AKBA, 3-O-acetyl-11-ketobeta-boswellic acid] was tested, and the EC50 [1] was 51.7 ± 13.6 µM, the “Positive allosteric CB1R effect on CP-55940 activity” value [1] was “strong positive allosteric CB1R effect” and the “Conclusions: Is CB1R antagonist effect observed?” value ([1]; AKBA 5 μM, % of activity data) was “Negative (Only treatments that the mean of three consecutive independent experiments show a positive result (CB1R activity ≤ 50%) are considered antagonists of CB1R activity)”. The activity at 5 µM ([1]; AKBA 5 μM, read-out: Experiment 1 % of activity) was 130%, the activity at 5 µM ([1]; AKBA 5 μM, read-out: Experiment 2 % of activity) was 123% and the activity at 5 µM ([1]; AKBA 5 μM, read-out: Experiment 3 % of activity) was 103%. For the same compound, the “Experiment 1 Fold change” value ([1]; AKBA 5 μM) was 3.2 Fold change, the “Experiment 2 Fold change” value ([1]; AKBA 5 μM) was 3.1 Fold change and the “Experiment 3 Fold change” value ([1]; AKBA 5 μM) was 2.6 Fold change. The “Conclusions: Is CB1R antagonist effect observed?” value ([1]; AKBA 5 μM, positive allosteric activity, fold change data) was “Negative (Only treatments that the mean of three consecutive independent experiments show a positive result (CB1R activity ≥ 4-fold change) are considered positive CB1R allosteric agonists)”, the “Conclusions: Is CB1R antagonist effect observed?” value ([1]; AKBA 10 μM, % of activity data) was “Negative (Only treatments that the mean of three consecutive independent experiments show a positive result (CB1R activity ≤ 50%) are considered antagonists of CB1R activity)” and the activity at 10 µM ([1]; AKBA 10 μM, read-out: Experiment 1 % of activity) was 136%. For the same compound, the activity at 10 µM ([1]; AKBA 10 μM, read-out: Experiment 2 % of activity) was 114%, the activity at 10 µM ([1]; AKBA 10 μM, read-out: Experiment 3 % of activity) was 96.4% and the “Experiment 1 Fold change” value ([1]; AKBA 10 μM) was 3.4 Fold change. For the same compound, the “Experiment 2 Fold change” value ([1]; AKBA 10 μM) was 2.8 Fold change, the “Experiment 3 Fold change” value ([1]; AKBA 10 μM) was 2.4 Fold change and the “Conclusions: Is CB1R antagonist effect observed?” value ([1]; AKBA 10 μM, positive allosteric activity, fold change data) was “Negative (Only treatments that the mean of three consecutive independent experiments show a positive result (CB1R activity ≥ 4-fold change) are considered positive CB1R allosteric agonists)”. For the same compound, the “Conclusions: Is CB1R antagonist effect observed?” value ([1]; AKBA 25 μM, % of activity data) was “Allosterism (increase of the CB1R activity percentage (>150%) induced by CP55940)”, the activity at 25 µM ([1]; AKBA 25 μM, read-out: Experiment 1 % of activity) was 203% and the activity at 25 µM ([1]; AKBA 25 μM, read-out: Experiment 2 % of activity) was 158%. The activity at 25 µM ([1]; AKBA 25 μM, read-out: Experiment 3 % of activity) was 128%, the “Experiment 1 Fold change” value ([1]; AKBA 25 μM) was 5.1 Fold change and the “Experiment 2 Fold change” value ([1]; AKBA 25 μM) was 3.9 Fold change. The “Experiment 3 Fold change” value ([1]; AKBA 25 μM) was 3.2 Fold change, the “Conclusions: Is CB1R antagonist effect observed?” value ([1]; AKBA 25 μM, positive allosteric activity, fold change data) was “Allosterism (An increase of the fold change ≥ 4-fold indicates CB1R positive allosteric agonistic activity)” and the “Conclusions: Is CB1R antagonist effect observed?” value ([1]; AKBA 50 μM, % of activity data) was “Allosterism (increase of the CB1R activity percentage (>150%) induced by CP55940)”. For the same compound, the activity at 50 µM ([1]; AKBA 50 μM, read-out: Experiment 1 % of activity) was 500%, the activity at 50 µM ([1]; AKBA 50 μM, read-out: Experiment 2 % of activity) was 537% and the activity at 50 µM ([1]; AKBA 50 μM, read-out: Experiment 3 % of activity) was 474%. For the same compound, the “Experiment 1 Fold change” value ([1]; AKBA 50 μM) was 12.5 Fold change, the “Experiment 2 Fold change” value ([1]; AKBA 50 μM) was 13.4 Fold change and the “Experiment 3 Fold change” value ([1]; AKBA 50 μM) was 11.9 Fold change. The “Conclusions: Is CB1R antagonist effect observed?” value ([1]; AKBA 50 μM, positive allosteric activity, fold change data) was “Allosterism (An increase of the fold change ≥ 4-fold indicates CB1R positive allosteric agonistic activity)”, the “Conclusions: Is CB1R antagonist effect observed?” value ([1]; AKBA 100 μM, % of activity data) was “Allosterism (increase of the CB1R activity percentage (>150%) induced by CP55940)” and the activity at 100 µM ([1]; AKBA 100 μM, read-out: Experiment 2 % of activity) was 674%. For the same compound, the activity at 100 µM ([1]; AKBA 100 μM, read-out: Experiment 3 % of activity) was 485%, the “Experiment 1 Fold change” value ([1]; AKBA 100 μM) was 25.6 Fold change and the “Experiment 2 Fold change” value ([1]; AKBA 100 μM) was 16.8 Fold change. The “Experiment 3 Fold change” value ([1]; AKBA 100 μM) was 12.1 Fold change, the “Conclusions: Is CB1R antagonist effect observed?” value ([1]; AKBA 100 μM, positive allosteric activity, fold change data) was “Allosterism (An increase of the fold change ≥ 4-fold indicates CB1R positive allosteric agonistic activity)” and the “CB1R antagonistic effect” value ([1]; AKBA 5-100 μM, CP55940-stimulated cells) was “did not show an antagonistic effect”. The “Conclusions: Is CB1R agonist effect observed?” value ([2]; AKBA 5 μM) was “Negative (Only treatments that the mean of three consecutive independent experiments shows a positive result: CB1R activity ≥ 2.5-fold increase or ≥ 4-fold increase are considered CB1R agonists or CB1R positive allosteric modulators)”, the “Experiment 1 Fold change” value ([2]; AKBA 5 μM) was 0.8 Fold change and the “Experiment 2 Fold change” value ([2]; AKBA 5 μM) was 0.8 Fold change. The “Experiment 3 Fold change” value ([2]; AKBA 5 μM) was 1.1 Fold change, the “Conclusions: Is CB1R agonist effect observed?” value ([2]; AKBA 10 μM) was “Negative (Only treatments that the mean of three consecutive independent experiments shows a positive result: CB1R activity ≥ 2.5-fold increase or ≥ 4-fold increase are considered CB1R agonists or CB1R positive allosteric modulators)” and the “Experiment 1 Fold change” value ([2]; AKBA 10 μM) was 1.0 Fold change. For the same compound, the “Experiment 2 Fold change” value ([2]; AKBA 10 μM) was 1.3 Fold change, the “Experiment 3 Fold change” value ([2]; AKBA 10 μM) was 0.9 Fold change and the “Experiment 1 Fold change” value ([2]; AKBA 25 μM) was 1.0 Fold change. For the same compound, the “Experiment 2 Fold change” value ([2]; AKBA 25 μM) was 1.1 Fold change, the “Experiment 3 Fold change” value ([2]; AKBA 25 μM) was 0.8 Fold change and the “Conclusions: Is CB1R agonist effect observed?” value ([2]; AKBA 25 μM, cell 'Positive' wraps to 'Positive synergy') was “Negative (Only treatments that the mean of three consecutive independent experiments shows a positive result: CB1R activity ≥ 2.5-fold increase or ≥ 4-fold increase are considered CB1R agonists or CB1R positive allosteric modulators)”. For the same compound, the “Experiment 1 Fold change” value ([2]; AKBA 50 μM) was 1.3 Fold change, the “Experiment 2 Fold change” value ([2]; AKBA 50 μM) was 1.3 Fold change and the “Experiment 3 Fold change” value ([2]; AKBA 50 μM) was 0.7 Fold change. For the same compound, the “Conclusions: Is CB1R agonist effect observed?” value ([2]; AKBA 50 μM, cell 'Positive' wraps to 'Positive synergy') was “Negative (Only treatments that the mean of three consecutive independent experiments shows a positive result: CB1R activity ≥ 2.5-fold increase or ≥ 4-fold increase are considered CB1R agonists or CB1R positive allosteric modulators)”, the “Experiment 1 Fold change” value ([2]; AKBA 100 μM) was 2.5 Fold change and the “Experiment 2 Fold change” value ([2]; AKBA 100 μM) was 1.1 Fold change. For the same compound, the “Experiment 3 Fold change” value ([2]; AKBA 100 μM) was 0.7 Fold change, the “Conclusions: Is CB1R agonist effect observed?” value ([2]; AKBA 100 μM, cell 'Positive' wraps to 'Positive synergy') was “Negative (Only treatments that the mean of three consecutive independent experiments shows a positive result: CB1R activity ≥ 2.5-fold increase or ≥ 4-fold increase are considered CB1R agonists or CB1R positive allosteric modulators)” and the “CB1R agonistic activity” value ([2]; AKBA 5-100 μM alone or + 10 μM THCA, any tested concentration, THC alone) was “did not show CB1R agonistic activity”.
